The values that follow come from patent US20080206761A1, “Ex Vivo Gene Expression in Whole Blood as a Model of Assessment of Individual Variation to Dietary Supplements” (priority 2005, published 2008).

In this assay the test system is TNFSF15 mRNA. In words: TNFSF15 mRNA in whole blood after dietary component and heat-aggregated IgG stimulation. It is filed as cell-based, human. Here is the method: The mRNA and cDNA were prepared from the whole blood that was exposed to the dietary components, as well as the whole blood which remained unexposed. In brief, home-made 96-well filterplates were placed over collection plates, and 150 μl 5 mM Tris, pH 7.4, was applied. Following centrifugation at 120×g for 1 min at 4° C., 50 μl of blood samples were applied to each well and immediately centrifuged at 120×g for 2 min at 4° C., followed by washing of each well with 300 μl PBS once with centrifugation at 2000×g for 5 min at 4° C. Then, 60 μl stock lysis buffer, containing for example 0.5% N-Lauroylsarcosine, 4×SSC, 10 mM Tris HCl, pH 7.4, 1 mM EDTA, 0.1% IGEPAL CA-630, and 1.791 M guanidine thiocyanate, supplemented with 1% 2-mercaptoethanol (Bio Rad, Hercules, Calif., USA), 0.5 mg/ml proteinase K (Pierce, Rockford, Ill., USA), 0.1 mg/ml salmon sperm DNA (5 Prime Eppendorf/Brinkmann, Westbury, N.Y., USA), 0.1 mg/ml E. coli tRNA (Sigma), a cocktail of 10 mM each of the specific reverse primers shown in Table 2, and standard RNA34 oligonucleotides, were applied to the filterplates, followed by incubation at 37° C. for 10 min. The filterplates were then placed over oligo(dT)-immobilized microplates (GenePlate, RNAture), and centrifuged at 2000×g for 5 min at 4° C. Following overnight storage at 4° C., the microplates were washed with 100 μl plain lysis buffer 3 times, followed by 150 μl of wash buffer (0.5 M NaCl, 10 mM Tris, pH 7.4, 1 mM EDTA) 3 times at 4° C. […] The Ct was determined by analytical software (SDS, ABI).
In this embodiment, heparinized whole blood of two individuals was pre-incubated with various dietary supplements at 37° C. for 30 minutes (at the same blood concentrations as in Embodiment 2), then stimulated with 1.2 μL of heat-aggregated IgG. […] The level of TNFSF3 and TNFSF15 mRNA was then assessed using the method described in Embodiment 1, with the exception that SYBR Green PCR was used to quantitate the mRNA. […]

For the molecule `CC1=C(/C=C/C(C)=C/C=C/C(C)=C/CO)C(C)(C)CCC1` [VA, vitamin A], the “effect on HAG-induced TNFSF15 expression, in words” value is, setting by setting: (FIG. 6, two cases, vitamin A 100 nmol/L) “eliminated the effect on HAG in one case (case 1)”; (FIG. 7 follow-up, seven cases overall, vitamin A only) “exhibited an inhibitory action on HAG-induced TNFSF15 expression in case 1, and in two of seven cases overall”. For the same molecule, the “baseline expression of TNFSF15, in words” value (FIG. 6, vitamin A 100 nmol/L) is recorded as “decreased the baseline expression of TNFSF-15”.
